Experimental data from ChEMBL document CHEMBL4138051, “Antimalarial drug discovery targeting apical membrane antigen 1” (Medchemcomm, 2017).

Target: T1, Apical membrane antigen 1 (Plasmodium falciparum, UniProt Q94661)
T1 sequence (Q94661 whole entry): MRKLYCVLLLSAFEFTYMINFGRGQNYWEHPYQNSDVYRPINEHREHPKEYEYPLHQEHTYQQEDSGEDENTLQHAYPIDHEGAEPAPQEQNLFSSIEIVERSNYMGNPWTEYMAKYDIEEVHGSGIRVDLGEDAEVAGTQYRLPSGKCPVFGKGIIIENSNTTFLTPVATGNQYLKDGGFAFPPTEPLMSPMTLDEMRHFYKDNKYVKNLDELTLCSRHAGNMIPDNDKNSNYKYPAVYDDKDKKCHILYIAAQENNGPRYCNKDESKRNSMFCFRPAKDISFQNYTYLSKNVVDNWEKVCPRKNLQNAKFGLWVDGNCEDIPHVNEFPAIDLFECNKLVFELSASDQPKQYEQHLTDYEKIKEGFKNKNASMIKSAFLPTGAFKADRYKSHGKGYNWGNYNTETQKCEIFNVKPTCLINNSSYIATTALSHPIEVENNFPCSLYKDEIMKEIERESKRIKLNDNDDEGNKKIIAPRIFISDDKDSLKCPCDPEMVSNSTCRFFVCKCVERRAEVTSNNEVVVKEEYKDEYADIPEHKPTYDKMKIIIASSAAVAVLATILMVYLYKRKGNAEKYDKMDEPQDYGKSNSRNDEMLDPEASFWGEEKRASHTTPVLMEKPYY
Experiment: Displacement of 5-FAM-Ahx-ALPLFSKFGSRMH from Plasmodium falciparum AMA1 by fluorescence anisotropy assay

IC50: 24 µM
SMILES: COc1ccc(CN2CC(OCc3ccccc3F)CN(C(=O)CCc3c(C)nc4ncnn4c3C)CC2=O)cc1 (stereo unspecified)
